Test results: patent US20220276186A1, “OPTIMIZED ANALYTE DERIVATIZATION FOR SYNERGISTIC APPLICATION WITH CRYSTAL SPONGE METHOD” (MERCK PATENT GMBH, priority 2019, published 2022)

Test: solubility of the analyte in chloroform (step i of Procedure 1, crystalline sponge method)
Assay type: physicochemical
Description: Procedure 1—absorption of an organic molecule into a single porous crystal. Specifically, procedure 1 describes absorption of an organic molecule into a crystalline sponge comprising [(ZnCl2)3(tpt)2.(cyclohexane)x] (tpt=1,3,5-tris(4-pyridyl)triazine. The organic molecule is first dissolved in trichloro methane (chloroform), i.e., the sample comprises the organic molecule in trichloro methane. The procedure comprises the steps: • i—1 mg of organic molecule is dissolved in 1 ml of chloroform at room temperature. (Proportionally lower quantities can be used, depending on the available amount of analyte.) • ii—A single crystal of [(ZnCl2)3(tpt)2.(cyclohexane)x] (tpt=1,3,5-tris(4-pyridyl)triazine) crystal sponge of about 100 μm diameter, which has been visually inspected under a microscope and found to be without twinning or visible cracks, is placed in a septum screw-top glass vial with conically pointed bottom, submerged in 50 μl of cyclohexane. • iii—4.5 μl of the solution obtained in step (i) (containing 4.5 μg of analyte) is added to the crystalline sponge in cyclohexane as described in step (ii). • iv—The screw-top is closed, and the septum is pierced with a medical-type syringe needle, which may be left in that position to enable slow solvent evaporation. This assembly is incubated at 50° C. for 24 or more hours. […]

SMILES: O=c1c(-c2ccc(O)cc2)coc2cc(O)ccc12 [4′,7-dihydroxy isoflavone]
- amount of analyte that could be dissolved in 1 ml chloroform (20° C.): about 0.005 mg in 1 ml

SMILES: COc1ccc(-c2coc3cc(OC)ccc3c2=O)cc1 [4′,7-dimethoxy isoflavone]
- solution of analyte in chloroform that could be prepared without difficulty (Procedure 1 step i (room temperature)): ≥ 1 mg in 1 ml
